Measured values taken from patent US9902713B2, “Neuroprotective compounds and use thereof” (BOARD OF REGENTS OF THE UNIVERSITY OF TEXAS SYSTEM, priority 2013, dated 2018).
Entries after “also recorded” stand apart in the source; their conditions may differ.

Columns and labels:
[1] = system: dopaminergic neurons within the substantia nigra; experiment: MPTP model of Parkinson's disease, TH+ neurons in SNc; format: in vivo, mice; conditions: IP, BID; for rescue of TH+ neurons: 10 mg/kg/d; for dose showing significant neuroprotective activity: 21 d after MPTP
Text: The mouse model of neurogenesis involves protecting newborn hippocampal neurons from premature apoptotic cell death. We also sought to determine if P7C3-S243 could protect mature neurons from cell death. […] In the brain, MPTP is oxidized to 1-methyl-4-phenylpyridinium cation (MPP^+), which is selectively transported into dopaminergic neurons within the SNc.^xh Within these cells, MPP^+ acts as a mitochondrial poison, generating a pathology that resembles that of Parkinsonian patients.^xvii Under our assay conditions, treatment with drug was initiated a full 24 hours after the final dose of MPTP. This dosing regime ensures that any effect of the P7C3 class of compounds can be attributed to neuroprotective activity rather than to simply blocking the uptake or metabolism of MPTP.^xviii Mice were administered drug twice daily for 21 days, after which time they were sacrificed by transcardial perfusion. Fixed brains were sectioned through the SNc at […] intervals. Every fourth section was stained with antibodies specific to tyrosine hydroxylase (TH). The TH enzyme catalyzes the oxidation of L-tyrosine to L-DOPA, which is the first step in the biosynthesis of dopamine. Accordingly, the number of TH+ cells provides a quantification of the neuroprotective efficacy of P7C3 derivatives following MPTP exposure. Importantly, all microscopic analyses were performed blinded to treatment group.
To test efficacy of P7C3-S243 in the MPTP model of Parkinson's disease, mice were administered MPTP (30 mg/k/d) for 5 days. On the 6th day, treatment with drug was initiated at the indicated dose (IP, BID, 21 d). In FIG. 3 upper panel, bars indicate number of tyrosine hydroxylase positive cells detected by immunohistochemical staining of the substantia nigra; error bars indicate SEM; asterisks indicate p<0.01 (*), p<0.001 (**) or p<0.0001 (***) relative to the Veh+MPTP group; number of mice in each group are shown within the bars. In FIG. 3 lower panel, representative immunohistochemical pictures of TH staining in the SNc are shown for 5 mg/kg/d treatment groups; bar=[…]. […] Moreover, the enantiomeric specificity observed in the MPTP model of Parkinson's disease mirrored that observed in the mouse model of neurogenesis. […] In this side-by-side experiment, P7C3-S243 appears at least as effective as P7C3-A20, a compound that has proven efficacy in several animal models of neurodegenerative disease.
MPTP Assay. As previously reported,^5 adult male C57BI/6 mice were individually housed for one week and then injected daily for 5 days with 30 mg/kg/day (i.p.) free base MPTP (Sigma). On day 6, 24 hours after receiving the fifth and final dose of MPTP, daily treatment with compound was initiated. Mice received twice daily doses of each compound (or vehicle) for the following 21 days, after which mice were sacrificed by transcardial perfusion with 4% paraformaldehyde. Brains were dissected, fixed overnight in 4% paraformaldehyde, and cryprotected in sucrose for freezing by standard procedures. […] Images were analyzed with a Nikon Eclipse 90i motorized research microscope with Plan Apo lenses coupled with Metamorph Image Acquisition software (Nikon). TH+ neurons were counted with Image J software (NIH) in every section by 2 blinded investigators and results were averaged and multiplied by the sectioning interval to determine the total number of TH+ neurons per SNc.

blast-injured mice = experiment: Barnes maze after blast-mediated TBI; format: in vivo; conditions: for time in escape quadrant, probe test: treatment immediately after blast-injury, 10 mg/kg/d IP, FIG. 21A
Text: Barnes maze: The Barnes maze evaluates cognition based on time spent in the escape area. There are 20 holes around the periphery of the round tabletop, one of which contains an escape chamber (shown in red), into which the animal is motivated to seek shelter after being placed on the open tabletop. The escape area is defined as 5 cm around the hole, and time spent in the escape area during the probe test is used to measure hippocampal-dependent memory, which is dependent on visual cue around the table.
To test the neuroprotective efficacy of P7C3-A20 and P7C3-S243, we employed a model of blast-induced TBI in which the blast wave is propagated following rupture of a mylar membrane (Mohan et al., 2013). Briefly, anesthetized mice are placed in an enclosed blast chamber constructed from an air tank partitioned into two sides. A sealed mylar membrane covers a small port between the two halves of the tank. When the pressure is increased in the side without the mouse, the membrane ruptures at ≈22 kilopascal (kPa), generating a blast wave that travels through the mouse's head. The head of the mouse is untethered and located in a padded holder, while the body is shielded from the blast by a metal tube. In all cases, the left side of the head faces the blast wave. As previously reported (Mohan et al., 2013), the intensity of the blast wave in our system is 149.8±2.09 kPa, and the duration of the total pressure (Blast wave+wind gust) is ≈10-15 milliseconds.
The Barnes maze consists of a circular table with holes equally spaced around the perimeter. One of these holes contains an escape cup, such that the mouse can enter the hole and hide in the cup to avoid exposure on the table. Testing in the Barnes maze was initiated 7 days after blast-injury. To begin, mice underwent 4 days of training, during which time they were allowed to find and enter the escape hole, and rest in the protective cup. By the 4th day of training, mice typically learn how to rapidly locate the escape hole, based on visual cues permanently positioned around the table throughout training. After 4 days of training, the cup is removed and the ability of the mouse to remember where the cup was previously located is assessed in the ‘probe test.’ Memory is reflected by measuring the amount of time the mouse spends in the area around where the cup was previously located.
Blast-Mediated Traumatic Brain Injury. Mice were anesthetized with ketamine/xylazine ([…] respectively) and placed in an enclosed blast chamber (50 cm long and 33 cm wide) constructed from an air tank partitioned into two sides. One side was pressurized with a 13 cm opening between the partitions, covered with a Mylar membrane. The unpressurized partition contained a restraint 10 cm from the Mylar membrane into which the mouse was placed. The head was freely moving while a metal tube shielded the body. Compressed air was forced in to the pressurized partition until the Mylar membrane bursts at 22 kPa. The blast wave impacts the test animal inside a foam-lined restraint to reduce blunt impact trauma of the head against the metal tube. The left side of the head was closest the origin of the blast wave. Sham-injured animals were anesthetized in the same way and not subjected to the blast.
Barnes Maze. The Barnes maze test assesses spatial learning and memory. It was conducted on a gray circular surface 91 cm in diameter with 20 holes 5 cm in diameter around the perimeter raised to a height of 90 cm (Stoelting Co.). The surface was brightly lit and open in order to motivate the test animal to learn the location of a dark escape chamber recessed under one of the 20 holes. The maze was placed inside a black circular curtain with four different visual cues (with different shapes and colors) for orientation to the permanent location of the escape chamber. Four days of training comprised of four trials per day were conducted for each animal. […]

[2] = 3 and 30 mg/kg/d from 24 hours after injury
[3] = 3 and 30 mg/kg/d from 36 hours after injury
[4] = from 48 hours after injury, any dose
[5] = single enantiomers, 3 mg/kg/d IP

With COc1cccc(NCC(F)Cn2c3ccc(Br)cc3c3cc(Br)ccc32)n1 (racemic) [P7C3-S243, N-(3-(3,6-dibromo-9H-carbazol-9-yl)-2-fluoropropyl)-6-methoxypyridin-2-amine] the “rescue of TH+ neurons” value ([1]; 21 d) was “over 85%”, the “dose showing significant neuroprotective activity” value [1] was 1 mg/kg/day and the “learning (percent latency to escape)” value (blast-injured mice; 0.3 mg/kg/day from 24 hours after injury) was “learned significantly worse than sham-injury mice”. The “learning (percent latency to escape)” value (blast-injured mice; 30 mg/kg/day from 48 hours after injury) was “restored normal learning”, the “learning (percent latency to escape)” value (blast-injured mice; 1, 3, 10 or 30 mg/kg/day from 24 hours after injury) was “learned the task as well as sham-injury mice” and the “percent quadrant time, probe test” value (blast-injured mice; [2]) was “preserved a normal percent quadrant time”. For the same compound, the “percent target entry, probe test” value (blast-injured mice; [2]) was “preserved a normal percent target entry”, the “percent quadrant time, probe test” value (blast-injured mice; [3]) was “only the higher dose was significantly protective” and the “percent target entry, probe test” value (blast-injured mice; [3]) was “only the higher dose was significantly protective”. For the same compound, the “learning (percent latency to escape)” value (blast-injured mice; 3 and 30 mg/kg/day from 36 hours after injury) was “improved learning”, the “percent target entry, probe test” value (blast-injured mice; IP 11 days, dose series, FIG. 22A) was “dose-dependently preserved performance” and the “percent quadrant time, probe test” value (blast-injured mice; IP 11 days, dose series, FIG. 23A) was “dose-dependently preserved performance”. The “memory in probe test” value (blast-injured mice; IP from 24 hours after injury, 0.3 mg/kg/day) was “did not preserve memory”, the “percent time in escape area, probe test” value (blast-injured mice; IP from 24 hours after injury, 1 mg/kg/day) was “partial, though not statistically significant, protection” and the “percent time in escape area, probe test” value (blast-injured mice; IP from 24 hours after injury, 3, 10 and 30 mg/kg/day) was “protected; also recorded: complete protection”. For the same compound, the “memory in probe test” value (blast-injured mice; IP from 36 hours after injury, 3 mg/kg/day) was “did not improve memory”, the “percent time in escape area, probe test” value (blast-injured mice; IP from 36 hours after injury, 30 mg/kg/d) was “partially efficacious” and the “percent time in escape area, probe test” value (blast-injured mice; IP from 48 hours after injury, any dose (3 or 30 mg/kg/d)) was “no protective efficacy”. For the same compound, the “percent quadrant time, probe test” value (blast-injured mice; [4]) was “no protective efficacy”, the “percent target entry, probe test” value (blast-injured mice; [4]) was “no protective efficacy” and the “time in escape quadrant, probe test” value (blast-injured mice) was “restored the time spent in the escape quadrant to normal levels”.

In the case of COc1cccc(NCC(F)Cn2c3ccc(Br)cc3c3cc(Br)ccc32)n1 (single isomer, unassigned; (-)) [(−)-P7C3-S243, (−)-N-(3-(3,6-dibromo-9H-carbazol-9-yl)-2-fluoropropyl)-6-methoxypyridin-2-amine], the “neuroprotection by single enantiomers” value ([1]; 21 d, FIG. 3) was “strongly protective”, the “memory in probe test” value (blast-injured mice; oral from 24 hours after injury, 3, 10 and 30 mg/kg/day) was “preserved memory” and the “learning (percent latency to escape)” value (blast-injured mice; oral, 1 mg/kg/day) was “restored normal learning”. For the same compound, the “memory in probe test” value (blast-injured mice; oral, 1 mg/kg/day) was “did not preserve memory”, the “learning (percent latency to escape)” value (blast-injured mice; oral, 1, 3, 10 and 30 mg/kg/day) was “preserved of normal percent latency to escape” and the “percent quadrant time, probe test” value (blast-injured mice; oral, 3, 10 and 30 mg/kg/day) was “potent preservation”. The “percent target entry, probe test” value (blast-injured mice; oral, 3, 10 and 30 mg/kg/day) was “potent preservation”, the “percent quadrant time, probe test” value (blast-injured mice; [5]) was “completely preserved normal performance” and the “percent target entry, probe test” value (blast-injured mice; [5]) was “preserved normal performance”. The “learning (percent latency to escape)” value (blast-injured mice; single enantiomers, 3 mg/kg/day from 24 hours after injury) was “learned the task as well as sham-injury mice”, the “percent time in escape area, probe test” value (blast-injured mice; single enantiomers, IP from 24 hours after injury, 3 mg/kg/day) was “complete protection” and the “percent time in escape area, probe test” value (blast-injured mice; single enantiomers, IP from 24 hours after injury, 3 mg/kg/day, listed as A, 3 mg/kg/day) was “protective”. The “time in escape quadrant, probe test” value (blast-injured mice) was “nonsignificant trend”.

In the case of COc1cccc(NCC(F)Cn2c3ccc(Br)cc3c3cc(Br)ccc32)c1 (stereo not shown) [P7C3-A20, N-(3-(3,6-dibromo-9H-carbazol-9-yl)-2-fluoropropyl)-3-methoxyaniline], the “rescue of TH+ neurons” value ([1]; 21 d) was “around 75%”, the “dose showing significant neuroprotective activity” value [1] was 5 mg/kg/day and the “time in escape quadrant, probe test” value (blast-injured mice) was “restored the time spent in the escape quadrant to normal levels”.
